Data as given in publication PMC4381330, “Identification of a novel selective agonist of PPARγ with no promotion of adipogenesis and less inhibition of osteoblastogenesis” (Scientific Reports, 2015).

Assays:
LXRα = target: T1, LXRα (Homo sapiens, UniProt Q13133); test: Receptor-specific transactivation, GAL4-LBD reporter in HEK293T cells; type: cell-based; settings: 30 μM F12016
T1 construct: expressed in transfected cells; host or cells: HEK293T
T1 sequence (Q13133 209-447 limits assumed): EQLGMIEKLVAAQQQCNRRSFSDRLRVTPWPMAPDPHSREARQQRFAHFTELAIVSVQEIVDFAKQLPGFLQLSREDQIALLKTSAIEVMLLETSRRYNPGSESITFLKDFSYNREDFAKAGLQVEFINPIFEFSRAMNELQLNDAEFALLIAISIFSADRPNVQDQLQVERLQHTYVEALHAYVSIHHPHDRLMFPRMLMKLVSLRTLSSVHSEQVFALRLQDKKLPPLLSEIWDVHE
Description: (§1) HEK293T cells were cotransfected with a GAL4-pGL4-luc reporter and plasmids encoding various nuclear receptor LBDs fused with the GAL4 DNA-binding domain. […] LXR, liver X receptor; RXR, retinoid X receptor.
(§2) The determination of nuclear receptor activation was performed as previously. Briefly, HEK293T cells were transfected with GAL4-pGL4-luc reporter plasmid and pBIND-PPARγ-LBD expression plasmid using Lipofectamine 2000 (Invitrogen) for 6 h before treatment with compounds for 20–24 h. Activity was determined by the Luciferase Assay System (Promega).

RXR = test: as above; type: cell-based; settings: 30 μM F12016
Description: as §1, §2

3T3-L1 adipocytes = test: 2-NBDG glucose uptake assay in mature 3T3-L1 adipocytes; type: cell-based, mouse; settings: 1, 10, 30 μM, 24 h, 0.05 nM insulin, vs DMSO
Description: Glucose uptake activity was determined by measuring the uptake of 2-NBDG (2-(N-(7-nitrobenz-2-oxa-1, 3-diazol-4-yl)amino)-2-deoxyglucose, Invitrogen). […] Glucose uptake was initiated by addition of 1 mM 2-NBDG diluted in PBS. After 1 h, it was terminated by removing the contents of the wells and washing the cells with PBS. The glucose uptake was quantified by measuring the fluorescence intensity of cell lysates (prepared with neutral lysis buffer) at 485 nm excitation and 528 nm emission, and normalized to the corresponding protein content.

[1] = target: T2, human PPARγ-LBD (corepressor peptide displacement) (Homo sapiens, UniProt P37231); test: LanthaScreen TR-FRET corepressor peptide displacement assay; type: biochemical
T2 construct: incubated with GST-fused human PPARγ-LBD, terbium-labeled anti-GST antibody; purchased Invitrogen
T2 sequence (P37231 238-503 limits assumed): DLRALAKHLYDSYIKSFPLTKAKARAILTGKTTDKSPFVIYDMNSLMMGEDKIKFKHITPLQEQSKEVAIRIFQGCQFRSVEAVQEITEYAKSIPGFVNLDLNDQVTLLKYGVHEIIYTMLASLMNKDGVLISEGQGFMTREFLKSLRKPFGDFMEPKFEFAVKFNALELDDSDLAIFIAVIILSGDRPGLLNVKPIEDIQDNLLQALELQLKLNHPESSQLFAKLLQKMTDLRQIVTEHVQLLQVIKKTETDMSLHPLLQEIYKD
Description: PPARγ coregulator peptide interaction assay was performed by the LanthaScreen TR-FRET PPARγ Coactivator Assay Kit (Invitrogen) according to the manufacturer's instructions. Serial concentrations of compounds were incubated with GST-fused human PPARγ-LBD, terbium-labeled anti-GST antibody and fluorescein-labeled peptide for 4 h. The measurement and data calculation were as above.

## 2-[2-(1, 2-dimethyl-1H-indol-3-yl)-2-oxo-acetylamino]-benzamide [Compound F12016]
LXRα
  transactivation of LXRα: no effects
RXR
  transactivation of RXR: no effects
3T3-L1 adipocytes
  insulin-stimulated glucose uptake (2-NBDG): enhanced the insulin-stimulated glucose uptake
[1]; corepressor peptide NCoR
  EC50/IC50 NCoR: 4.425 µM
[1]; corepressor peptide NCoR, relative to rosiglitazone
  Efficacy NCoR: 91%
[1]; corepressor peptide SMRT
  EC50/IC50 SMRT: 2.861 µM
[1]; corepressor peptide SMRT, relative to rosiglitazone
  Efficacy SMRT: 58%
[1]; dose-dependent, similar degree as rosiglitazone
  displacement of corepressors NCoR and SMRT: able to efficiently displace corepressors
